Read-outs that look alike come from different tables or passages of the source.
Assays:
Hsp90-LA1011 = molecular target: T1, Hsp90-LA1011 (Saccharomyces cerevisiae, UniProt P02829); assay: ITC, co-chaperone binding to Hsp90-LA1011 complex; set-up: species or system yeast
T1 construct: made in house
Experimental: (§1) The heat of interaction was measured on an ITC200 microcalorimeter (Microcal) under the same buffer conditions (20 mM Tris, pH 7.5, containing 5 mM NaCl), except for experiments using PP5, where we omitted EDTA and used 1 μM MnCl2. In experiments using nucleotide, we used 5 mM AMPPNP and 6 mM MgCl2. For experiments using Aha1 with AMPPNP the buffer contained 100 mM NaCl. Similarly, Sgt1 experiments also included 100 mM NaCl in the buffer. […] To assess co-chaperone binding to Hsp90 and Hsp90-LA1011 complex, we generally injected aliquots of co-chaperone at concentrations ranging from 200 to 400 μM into the microcell containing the Hsp90 or Hsp90-LA1011 complex at concentrations ranging from 20 to 30 μM of Hsp90 or Hsp90 in complex with 2 mM LA1011 at 30 °C. Heats of dilution were determined by diluting the injectant into the buffer. Data were fitted using a curve-fitting algorithm (Microcal Origin) either as a one-site binding event or as two independent binding sites as required.

Hsp90 [1] = molecular target: T2, Hsp90 (Saccharomyces cerevisiae, UniProt P02829); assay: ITC, co-chaperone binding to Hsp90; set-up: species or system yeast
T2 construct: made in house
Experimental: as §1

Hsp90 [2] = molecular target: T2, Hsp90; assay: Lactate-dehydrogenase and pyruvate-kinase-linked Hsp90 ATPase assay; type: biochemical, yeast; conditions: for effect of LA1011 on the co-chaperone directed regulation of Hsp90 ATPase activity: 2 μM Hsp90, 240 μM LA1011, co-chaperone 0.25 to 30 μM, normalized data compared with control lacking LA1011; for effect on Hsp90 ATPase activity: 2 μM Hsp90
Experimental: ATPase assays using 2 μM Hsp90 were conducted as previously described using the lactate-dehydrogenase and pyruvate-kinase-linked assay.[12] Briefly, 240 μM of LA1011 was used in assays as required. Co-chaperones were added to Hsp90 and Hsp90-LA1011 complex at a variety of concentrations ranging from 0.25 to 30 μM. Assays utilizing LA1011 were normalized by recalculating the activity for all data points so that the data points were converted to a percentage of the activity relative to the first data point, which lacked any addition of co-chaperone. The first data point was therefore 100% max Hsp90 activity. All assays were conducted at least in triplicate.
To assess the effect of LA1011 on the mechanistic action of co-chaperones, we used the lactate-dehydrogenase and pyruvate-kinase-linked Hsp90 ATPase assay. We first assessed the effect of each co-chaperone on Hsp90 ATPase activity and then compared its effect on a Hsp90-LA1011 complex.

Hsp90-PNP = molecular target: T3, Hsp90-PNP (Saccharomyces cerevisiae, UniProt P02829); assay: ITC, co-chaperone binding to Hsp90-AMPPNP; set-up: species or system yeast; conditions: 5 mM AMPPNP, no LA1011, for Aha1 the Hsp90-PNP was the injectant
T3 construct: made in house
Experimental: as §1

Hsp90-LA1011-PNP = molecular target: T4, Hsp90-LA1011-PNP (Saccharomyces cerevisiae, UniProt P02829); assay: ITC, co-chaperone binding to Hsp90-AMPPNP-LA1011 complex; set-up: species or system yeast; conditions: 5 mM AMPPNP, 2 mM LA1011, for Aha1 the Hsp90-LA1011-PNP was the injectant
T4 construct: made in house
Experimental: as §1

Hsp90 [3] = molecular target: T2, Hsp90; assay: ITC, LA1011 binding to nucleotide-free Hsp90; set-up: species or system yeast; conditions: ITC 30 °C, 2 mM LA1011 injected into 30 μM Hsp90
Experimental: (§2) The heat of interaction was measured on an ITC200 microcalorimeter (Microcal) under the same buffer conditions (20 mM Tris, pH 7.5, containing 5 mM NaCl), except for experiments using PP5, where we omitted EDTA and used 1 μM MnCl2. In experiments using nucleotide, we used 5 mM AMPPNP and 6 mM MgCl2. For experiments using Aha1 with AMPPNP the buffer contained 100 mM NaCl. Similarly, Sgt1 experiments also included 100 mM NaCl in the buffer. […] Heats of dilution were determined by diluting the injectant into the buffer. Data were fitted using a curve-fitting algorithm (Microcal Origin) either as a one-site binding event or as two independent binding sites as required.
(§3) To circumvent this limitation, we can alternatively fit the two sites as equal thermodynamic events, and the Kd value or values(s) returned then act as an indicator for changes in the overall affinity for LA1011 binding. […] Thus, our overall approach is to use a stoichiometry of 1:1 that represents the binding of two LA1011 molecules (because there are two binding sites) per Hsp90 dimer, except where we are confident that the stoichiometry is 2:1 (Hsp90 dimer and one LA1011 molecule). […] Thus, prior to choosing the ITC fitting parameters, we first consider the availability of both LA1011 binding sites for complexes of Hsp90 with its co-chaperone partner. […]

Hsp90-HOP = Hsp90-HOP (Saccharomyces cerevisiae, UniProt P02829); conditions: ITC, 20 μM Hsp90, 40 μM HOP
Experimental: as §2
(§4) Thus, our overall approach is to use a stoichiometry of 1:1 that represents the binding of two LA1011 molecules (because there are two binding sites) per Hsp90 dimer, except where we are confident that the stoichiometry is 2:1 (Hsp90 dimer and one LA1011 molecule).

APPxPS1 AD mouse model = tested on: APPxPS1 AD mouse model; set-up: method as in PMID 27163800; conditions: APPxPS1 mice, versus untreated mice; cited from earlier work
Hsp90-p23-PNP = molecular target: T5, Hsp90-p23-PNP (Saccharomyces cerevisiae, UniProt P02829); assay: ITC, LA1011 binding to AMPPNP-Hsp90-p23 complex; set-up: species or system yeast; conditions: 30 μM Hsp90, 200 μM p23, 5 mM Mg-PNP
T5 construct: made in house
Experimental: as §2, §3

Hsp90-FKBP52 = molecular target: T6, Hsp90-FKBP52 (Saccharomyces cerevisiae, UniProt P02829); assay: ITC, LA1011 binding to Hsp90-FKBP52 complex; set-up: species or system yeast; conditions: 30 μM Hsp90, 60 μM FKBP52, 2:1 fit
T6 construct: made in house
Experimental: as §2, §4

Hsp90 [4] = molecular target: Hsp90; set-up: method as in PMID 29930942; conditions: previously measured; cited from earlier work
Hsp90-AMPPNP = molecular target: T7, Hsp90-AMPPNP (Saccharomyces cerevisiae, UniProt P02829); assay: ITC, LA1011 binding to Hsp90-AMPPNP; set-up: species or system yeast; conditions: 30 μM Hsp90, 5 mM AMPPNP
T7 construct: made in house
Experimental: as §2, §3

Hsp90-CDC37 = molecular target: T8, Hsp90-CDC37 (Saccharomyces cerevisiae, UniProt P02829); assay: ITC, LA1011 binding to Hsp90-CDC37 complex; set-up: species or system yeast
T8 construct: made in house
Experimental: as §2, §4

Hsp90-Sgt1 = molecular target: T9, Hsp90-Sgt1 (Saccharomyces cerevisiae, UniProt P02829); assay: ITC, LA1011 binding to Hsp90-Sgt1 complex; set-up: species or system yeast; conditions: 30 μM Hsp90, 60 μM Sgt1, 100 mM NaCl, 2:1 fit
T9 construct: made in house
Experimental: as §2, §4

Hsp90-CHIP = molecular target: T10, Hsp90-CHIP (Saccharomyces cerevisiae, UniProt P02829); assay: ITC, LA1011 binding to Hsp90-mouse CHIP complex; set-up: species or system yeast; conditions: 20 μM Hsp90, 60 μM CHIP
T10 construct: made in house
Experimental: as §2, §3

Hsp90-FKBP51 = molecular target: T11, Hsp90-FKBP51 (Saccharomyces cerevisiae, UniProt P02829); assay: ITC, LA1011 binding to Hsp90-FKBP51 complex; set-up: species or system yeast; conditions: 30 μM Hsp90, 60 μM FKBP51, 2:1 fit
T11 construct: made in house
Experimental: as §2, §4

Hsp90-Aha1 = molecular target: T12, Hsp90-Aha1 (Saccharomyces cerevisiae, UniProt P02829); assay: ITC, LA1011 binding to nucleotide-free Hsp90-yeast Aha1 complex; conditions: 20 μM Hsp90, 40 μM yAha1, nucleotide-free
T12 construct: made in house
Experimental: as §2, §3

[5] = ITC 30 °C, Hsp90 in complex with 2 mM LA1011, one-site fit, read-out: Kd
[6] = ITC 30 °C, co-chaperone and Hsp90 without LA1011, one-site fit, read-out: Kd

T1 sequence (P02829 whole entry): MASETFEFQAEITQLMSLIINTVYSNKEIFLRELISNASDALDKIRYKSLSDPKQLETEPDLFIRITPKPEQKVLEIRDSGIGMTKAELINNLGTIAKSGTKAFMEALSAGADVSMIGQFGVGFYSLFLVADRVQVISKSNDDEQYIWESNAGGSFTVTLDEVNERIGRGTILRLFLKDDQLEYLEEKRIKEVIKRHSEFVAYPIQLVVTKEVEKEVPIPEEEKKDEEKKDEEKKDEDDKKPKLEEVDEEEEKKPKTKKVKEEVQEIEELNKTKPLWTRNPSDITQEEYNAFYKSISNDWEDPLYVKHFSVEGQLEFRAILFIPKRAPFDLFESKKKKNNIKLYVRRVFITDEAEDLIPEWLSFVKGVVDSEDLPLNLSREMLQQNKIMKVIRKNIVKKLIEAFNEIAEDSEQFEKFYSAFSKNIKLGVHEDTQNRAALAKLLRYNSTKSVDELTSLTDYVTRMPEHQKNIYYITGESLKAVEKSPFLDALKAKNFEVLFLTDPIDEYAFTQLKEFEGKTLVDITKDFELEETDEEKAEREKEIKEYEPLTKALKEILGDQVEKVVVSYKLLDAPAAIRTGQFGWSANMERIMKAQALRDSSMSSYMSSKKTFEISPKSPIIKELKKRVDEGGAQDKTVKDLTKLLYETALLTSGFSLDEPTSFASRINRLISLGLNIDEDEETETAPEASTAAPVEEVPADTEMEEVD
T2 sequence (P02829 whole entry): as above
T4 sequence (P02829 whole entry): as above
T8 sequence (P02829 whole entry): as above
T8 sequence (Q16543 whole entry partner): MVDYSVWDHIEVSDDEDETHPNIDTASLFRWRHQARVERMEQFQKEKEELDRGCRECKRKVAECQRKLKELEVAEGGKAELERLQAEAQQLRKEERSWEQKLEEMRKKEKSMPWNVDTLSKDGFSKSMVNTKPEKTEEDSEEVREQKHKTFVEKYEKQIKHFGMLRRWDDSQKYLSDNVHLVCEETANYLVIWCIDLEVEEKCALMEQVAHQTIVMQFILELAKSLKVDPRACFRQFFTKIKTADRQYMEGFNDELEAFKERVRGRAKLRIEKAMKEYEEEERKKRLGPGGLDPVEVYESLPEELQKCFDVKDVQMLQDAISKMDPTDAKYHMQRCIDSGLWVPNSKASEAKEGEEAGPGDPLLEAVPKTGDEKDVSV
Hsp90-HOP, sequence (P02829 whole entry): as the sequence (P02829 whole entry) above
Hsp90-HOP, sequence (P31948 whole entry partner): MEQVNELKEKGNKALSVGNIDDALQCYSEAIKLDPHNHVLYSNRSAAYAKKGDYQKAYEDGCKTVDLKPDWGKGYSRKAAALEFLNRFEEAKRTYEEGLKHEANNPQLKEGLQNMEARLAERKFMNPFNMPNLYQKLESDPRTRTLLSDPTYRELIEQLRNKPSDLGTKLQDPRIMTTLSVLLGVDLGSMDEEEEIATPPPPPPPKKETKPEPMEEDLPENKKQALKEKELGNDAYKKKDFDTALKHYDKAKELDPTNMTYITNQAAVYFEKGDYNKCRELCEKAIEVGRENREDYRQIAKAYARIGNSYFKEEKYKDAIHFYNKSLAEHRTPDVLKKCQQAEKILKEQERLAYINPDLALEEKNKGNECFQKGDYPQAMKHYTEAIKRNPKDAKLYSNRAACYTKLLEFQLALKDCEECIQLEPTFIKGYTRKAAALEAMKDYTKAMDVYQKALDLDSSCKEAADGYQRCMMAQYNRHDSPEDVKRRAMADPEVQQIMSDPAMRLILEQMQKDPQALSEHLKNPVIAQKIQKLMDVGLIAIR

Compound: Hch1: Hsp90 co-chaperone homologous to the N-terminal domain of Aha1
- Kd (Hsp90-LA1011; [5]): 11.6 µM
- Kd (Hsp90 [1]; [6]): 6.9 µM

Compound: Sti1: the yeast homolog of human HOP
- effect of LA1011 on the co-chaperone directed regulation of Hsp90 ATPase activity (Hsp90 [2]): unaffected by the presence of LA1011

Compound: p23: Hsp90 co-chaperone that promotes the closed conformation of Hsp90
- effect of LA1011 on the co-chaperone directed regulation of Hsp90 ATPase activity (Hsp90 [2]): unaffected by the presence of LA1011
- Kd (Hsp90-PNP): 4.2 µM
- Kd (Hsp90-LA1011-PNP): 8.9 µM

Compound: COC(=O)C1=C(CCN(C)C)N(C)C(CCN(C)C)=C(C(=O)OC)C1c1ccc(C(F)(F)F)cc1.Cl.Cl [LA1011, dimethyl 4-(4-Trifluoro-methyl-phenyl)-2,6-bis(2-dimethylamino-ethyl)-1-methyl-1-4 dihydropyridine-3-5-dicarboxylate dihydrochloride]
- Kd (Hsp90 [3]; 1:1 stoichiometric fit, read-out: Kd (1:1)): 19.8 ± 2.2 µM
- Kd (Hsp90 [3]; 2:1 (Hsp90:LA1011) stoichiometric fit, read-out: Kd (2:1)): 28.9 ± 1.7 µM
- Kd (Hsp90-HOP; read-out: Kd (1:1), 1:1 fit): 8.8 ± 1.3 µM
- Kd (Hsp90-HOP; read-out: Kd (2:1), 2:1 fit): 8.8 ± 1.3 µM
- amyloid-beta (Aβ) plaques (APPxPS1 AD mouse model): decreases
- dendritic spine density (APPxPS1 AD mouse model): increase in the dendritic spine density
- heat-shock-response (APPxPS1 AD mouse model): co-induction of the heat-shock-response
- neurofibrillary tangles (APPxPS1 AD mouse model): decreases in neurofibrillary tangles
- neuron number (APPxPS1 AD mouse model): increase in neuron number
- Kd (Hsp90-p23-PNP; 1:1 fit, read-out: Kd (1:1)): 58.8 ± 3.5 µM
- Kd (Hsp90-p23-PNP; 2:1 fit, read-out: Kd (2:1)): 73 ± 4.5 µM
- Kd (Hsp90-FKBP52): 56.2 ± 5.8 µM
- Kd (Hsp90 [4]): 13.5 µM
- Kd (Hsp90-AMPPNP; 1:1 fit, read-out: Kd (1:1)): 58.8 ± 24.2 µM
- Kd (Hsp90-AMPPNP; 2:1 fit, read-out: Kd (2:1)): 73 ± 3.1 µM
- Kd (Hsp90-CDC37; 20 μM Hsp90, 40 μM CDC37, 1:1 fit, read-out: Kd (1:1)): 4.2 ± 0.8 µM
- Kd (Hsp90-CDC37; 20 μM Hsp90, 40 μM CDC37, 2:1 fit, read-out: Kd (2:1)): 9.5 ± 2.5 µM
- effect on Hsp90 ATPase activity (Hsp90 [2]): activators of Hsp90 ATPase activity
- Kd (Hsp90-Sgt1): 8.2 ± 1 µM
- Kd (Hsp90-CHIP; 1:1 fit, read-out: Kd (1:1)): 56.2 ± 26.2 µM
- Kd (Hsp90-CHIP; 2:1 fit, read-out: Kd (2:1)): 69 ± 2 µM
- Kd (Hsp90-FKBP51): 79.4 ± 33.5 µM
- Kd (Hsp90-Aha1; 1:1 fit, read-out: Kd (1:1)): 118 ± 8 µM
- Kd (Hsp90-Aha1; 2:1 fit, read-out: Kd (2:1)): 53.2 ± 5.5 µM

Compound: Aha1: yeast Aha1, late-cycle Hsp90 co-chaperone and activator of Hsp90 ATPase activity
- Kd (Hsp90-LA1011; [5]): 3.3 ± 0.4 µM
- effect on Hsp90 ATPase activity (Hsp90 [2]): activators of Hsp90 ATPase activity
- effect of LA1011 on the co-chaperone directed regulation of Hsp90 ATPase activity (Hsp90 [2]): significantly less Aha1 is required to fully activate Hsp90
- Kd (Hsp90 [1]; [6]): 2.4 ± 0.2 µM
- Kd (Hsp90-PNP): 1.2 µM
- Kd (Hsp90-LA1011-PNP): 1.8 µM

Compound: HOP: Hsp90 co-chaperone found in early complexes of the chaperone cycle
- Kd (Hsp90-LA1011; [5]): 0.3 µM
- Kd (Hsp90 [1]; [6]): 0.43 µM

Compound: CDC37: Hsp90 co-chaperone of early complex assembly
- Kd (Hsp90-LA1011; [5]): 1.3 µM
- effect of LA1011 on the co-chaperone directed regulation of Hsp90 ATPase activity (Hsp90 [2]): unaffected by the presence of LA1011
- Kd (Hsp90 [1]; [6]): 1.59 µM

Compound: PP5: full-length PP5, phosphatase co-chaperone of Hsp90
- Kd (Hsp90-LA1011; ITC, Hsp90 with 2 mM LA1011, two-site fit, value listed first in Table 2 and figures, read-out: Kd (two-site fit, first value listed)): 9.6 µM
- Kd (Hsp90-LA1011; ITC, Hsp90 with 2 mM LA1011, two-site fit, value listed second in Table 2 and figures, read-out: Kd (two-site fit, second value listed)): 9.2 µM
- Kd (Hsp90 [1]; ITC, Hsp90 without LA1011, two-site fit, value listed first in Table 2 and figures, read-out: Kd (two-site fit, first value listed)): 0.64 µM
- Kd (Hsp90 [1]; ITC, Hsp90 without LA1011, two-site fit, value listed second in Table 2 and figures, read-out: Kd (two-site fit, second value listed)): 0.16 µM

Source: paper PMC12757481, “The dihydropyridine LA1011 modulates multiple Hsp90—co-chaperone interactions relevant to Alzheimer’s disease” (Cell Stress & Chaperones, 2025)
